In US5773573A, “HIV peptides” (priority 1994, dated 1998):
Residues, ends and D or L forms follow the SMILES beside them.

Assay: White cell and T cell subset counts (CD4, CD8, NK) in HIV infected patient given HEP1
Type: in vivo, human
Details: patient three
Procedure: The objective of this study was to determine in an HIV infected patient if the induction of immunological tolerance to HEP1 could reduce immune activation and HIV infection. The design of the first clinical experiment was to orally administer HEP1 to the patient in daily 10 mg doses (the lower end of the preferred dose range). This was then followed approximately three months later with a subcutaneous administration of HEP1 at a higher dose of 140 mg. To assess the therapeutic benefit of HEP1, the following disease progression markers were measured by taking blood samples before, during and after each trial and determining: HIV levels by a p24 antigen assay, HIV infectivity by a cellular TCID assay and immune activation by quantitating levels of various lymphocytes.
T cell subsets were measured by adding a whole blood sample to a 4.5 ml tube containing EDTA and staining with monoclonal antibodies to CD3, CD4 and CD8. The percentage of T cells in Peripheral Blood Lymphocytes were determined by flow-cytometric procedures. The numbers of CD4 and CD8 T cells were determined by obtaining total and differential white-cell counts and multiplying by the appropriate factor obtained on flow cytometry.
The following markers of HIV disease progression were assayed: p24Ag (the concentration of HIV p24 protein in picogram/ml in the blood), TCID (the infectivity of the HIV in the cells of blood sample measured by an in vitro cell culture assay in which a serial dilution of the sample was mixed with activated uninfected PBMC and the level of HIV infection determined by p24Ag assay), total white count (immune activation measured by the number of white cells per mm^3), CD4 (the number of CD4 positive cells per mm^3), CD8 (the number of CD8 positive cells per mm^3), NK (the number of Natural Killer cells per mm^3), Lymphocytes (the number of cells per mm^3), Monocytes (the number of cells per mm^3), and Granulocytes (the number of cells per mm^3). Normalised data was calculated by dividing each data point by the value of its data series on day 1 of the trail and multiplying by 100.

[1] = oral HEP1 10 mg daily day 2-22, day-69, before treatment
[2] = orally administered HEP1 10 mg daily
[3] = single subcutaneous HEP1 dose on day 1, day 1*, four hours after injection
[4] = single subcutaneous HEP1 dose on day 1, day 1, before injection
[5] = single subcutaneous HEP1 dose on day 1, day 6, after injection
[6] = single subcutaneous HEP1 dose on day 1, day-7, before treatment
[7] = single subcutaneous HEP1 dose on day 1, day-56, before treatment
[8] = single subcutaneous HEP1 dose on day 1, day-91, end of oral study
[9] = subcutaneous administration of one larger dose of HEP1

## CC(C)[C@H](NC(=O)[C@@H](NC(=O)[C@H](CCC(=O)O)NC(=O)[C@H](CCCNC(=N)N)NC(=O)[C@H](CCCNC(=N)N)NC(=O)[C@H](CCCCN)NC(=O)[C@H](CCCCN)NC(=O)[C@H](CCC(=O)O)NC(=O)[C@@H](N)[C@@H](C)O)[C@@H](C)O)C(=O)N[C@@H](CCC(=O)O)C(=O)N[C@@H](CCCNC(=N)N)C(=O)N[C@@H](CCC(=O)O)C(=O)N[C@@H](CCCCN)C(=O)N[C@@H](CCC(=O)O)C(=O)O [HEP1, NH2 ThrGluLysLysArgArgGluThrValGluArgGluLysGluCOOH] (H-TEKKRRETVEREKE-OH)
[1]
  NK, normalised data (day 1 = 100): 67
  White count: 7900 cells per mm^3
  White count, normalised data (day 1 = 100): 96
[2]
  CD4 count, course: no significant increase
  CD8, course: increased during treatment
  total white cell count, course (immune activation): fell during and after treatment and fall
[3]
  % Granulocytes: 55%
  % Granulocytes, normalised data (day 1 = 100): 80
  % Lymphocytes: 33%
  % Lymphocytes, normalised data (day 1 = 100): 142
  % Monocytes: 11%
  % Monocytes, normalised data (day 1 = 100): 138
  CD4: 120 cells per mm^3
  CD4, normalised data (day 1 = 100): 150
  CD8: 1130 cells per mm^3
  CD8, normalised data (day 1 = 100): 128
  Granulocytes: 2530 cells per mm^3
  Granulocytes, normalised data (day 1 = 100): 66
  Lymphocytes: 1520 cells per mm^3
  Lymphocytes, normalised data (day 1 = 100): 118
  Monocytes: 510 cells per mm^3
  Monocytes, normalised data (day 1 = 100): 113
  NK: 30 cells per mm^3
  NK, normalised data (day 1 = 100): 267
  White count: 4600 cells per mm^3
  White count, normalised data (day 1 = 100): 82
[4]
  % Granulocytes: 69%
  % Granulocytes, normalised data (day 1 = 100): 100
  % Lymphocytes: 23.3%
  % Lymphocytes, normalised data (day 1 = 100): 100
  % Monocytes: 8%
  % Monocytes, normalised data (day 1 = 100): 100
  CD4: 80 cells per mm^3
  CD4, normalised data (day 1 = 100): 100
  CD8: 880 cells per mm^3
  CD8, normalised data (day 1 = 100): 100
  Granulocytes: 3860 cells per mm^3
  Granulocytes, normalised data (day 1 = 100): 100
  Lymphocytes: 1290 cells per mm^3
  Lymphocytes, normalised data (day 1 = 100): 100
  Monocytes: 450 cells per mm^3
  Monocytes, normalised data (day 1 = 100): 100
  NK: 30 cells per mm^3
  NK, normalised data (day 1 = 100): 100
  White count: 5600 cells per mm^3
  White count, normalised data (day 1 = 100): 100
[5]
  % Lymphocytes: 22.2%
  CD4: 80 cells per mm^3
  CD4, normalised data (day 1 = 100): 100
  CD8: 780 cells per mm^3
  CD8, normalised data (day 1 = 100): 89
  White count: 5400 cells per mm^3
  White count, normalised data (day 1 = 100): 96
[6]
  % Granulocytes: 81%
  % Granulocytes, normalised data (day 1 = 100): 117
  % Lymphocytes: 12.9%
  % Lymphocytes, normalised data (day 1 = 100): 55
  % Monocytes: 7%
  % Monocytes, normalised data (day 1 = 100): 88
  CD4: 70 cells per mm^3
  CD4, normalised data (day 1 = 100): 88
  CD8: 670 cells per mm^3
  CD8, normalised data (day 1 = 100): 76
  Granulocytes: 6640 cells per mm^3
  Granulocytes, normalised data (day 1 = 100): 172
  Lymphocytes: 980 cells per mm^3
  Lymphocytes, normalised data (day 1 = 100): 76
  Monocytes: 570 cells per mm^3
  Monocytes, normalised data (day 1 = 100): 127
  NK: 40 cells per mm^3
  NK, normalised data (day 1 = 100): 133
  White count: 8200 cells per mm^3
  White count, normalised data (day 1 = 100): 146
[7]
  % Granulocytes: 75%
  % Granulocytes, normalised data (day 1 = 100): 109
  % Lymphocytes: 19%
  % Lymphocytes, normalised data (day 1 = 100): 82
  % Monocytes: 6%
  % Monocytes, normalised data (day 1 = 100): 75
  CD4: 75 cells per mm^3
  CD4, normalised data (day 1 = 100): 94
  CD8: 880 cells per mm^3
  CD8, normalised data (day 1 = 100): 100
  Granulocytes: 4950 cells per mm^3
  Granulocytes, normalised data (day 1 = 100): 128
  Lymphocytes: 1250 cells per mm^3
  Lymphocytes, normalised data (day 1 = 100): 97
  Monocytes: 400 cells per mm^3
  Monocytes, normalised data (day 1 = 100): 89
  NK: 75 cells per mm^3
  NK, normalised data (day 1 = 100): 250
  White count: 6600 cells per mm^3
  White count, normalised data (day 1 = 100): 118
[8]
  % Granulocytes: 74.5%
  % Granulocytes, normalised data (day 1 = 100): 108
  % Lymphocytes: 20%
  % Lymphocytes, normalised data (day 1 = 100): 86
  % Monocytes: 5.5%
  % Monocytes, normalised data (day 1 = 100): 69
  CD4: 80 cells per mm^3
  CD4, normalised data (day 1 = 100): 100
  CD8: 730 cells per mm^3
  CD8, normalised data (day 1 = 100): 83
  Granulocytes: 4020 cells per mm^3
  Granulocytes, normalised data (day 1 = 100): 104
  Lymphocytes: 1050 cells per mm^3
  Lymphocytes, normalised data (day 1 = 100): 81
  Monocytes: 440 cells per mm^3
  Monocytes, normalised data (day 1 = 100): 98
  NK: 20 cells per mm^3
  NK, normalised data (day 1 = 100): 67
  White count: 5500 cells per mm^3
  White count, normalised data (day 1 = 100): 98
[9]
  CD4 and CD8 T cells, course after the rise: return to the pre-injection i levels six days later
  rise in CD4 T cells after the HEP1 injection: +50%
  rise in CD8 T cells after the HEP1 injection: +28%
Subcutaneous administration of one larger dose of HEP1 (FIG. 3)
  CD4+ and CD8+ T cells, course: sharp increase
